Experimental data from US12024503B2, “Benzethers and anilines of pyrazolyl-amino-pyrimidinyl derivatives, and compositions and methods thereof” (LYNK PHARMACEUTICALS CO. LTD., priority 2019, dated 2024).
Read-outs that look alike come from different tables or passages of the source.

Tests used:
Assay type in all cases: biochemical
[1] = molecular target: T1, JAK2V617F (Homo sapiens, UniProt O60674, V617F); test: JAK2V617F microfluidic kinase assay (Caliper EZ Reader II, FAM labeled peptide substrate); settings: (2.5 nM), 1 mM ATP
T1 construct: purchased Carna Biosciences
T1 sequence (O60674 whole entry V617F): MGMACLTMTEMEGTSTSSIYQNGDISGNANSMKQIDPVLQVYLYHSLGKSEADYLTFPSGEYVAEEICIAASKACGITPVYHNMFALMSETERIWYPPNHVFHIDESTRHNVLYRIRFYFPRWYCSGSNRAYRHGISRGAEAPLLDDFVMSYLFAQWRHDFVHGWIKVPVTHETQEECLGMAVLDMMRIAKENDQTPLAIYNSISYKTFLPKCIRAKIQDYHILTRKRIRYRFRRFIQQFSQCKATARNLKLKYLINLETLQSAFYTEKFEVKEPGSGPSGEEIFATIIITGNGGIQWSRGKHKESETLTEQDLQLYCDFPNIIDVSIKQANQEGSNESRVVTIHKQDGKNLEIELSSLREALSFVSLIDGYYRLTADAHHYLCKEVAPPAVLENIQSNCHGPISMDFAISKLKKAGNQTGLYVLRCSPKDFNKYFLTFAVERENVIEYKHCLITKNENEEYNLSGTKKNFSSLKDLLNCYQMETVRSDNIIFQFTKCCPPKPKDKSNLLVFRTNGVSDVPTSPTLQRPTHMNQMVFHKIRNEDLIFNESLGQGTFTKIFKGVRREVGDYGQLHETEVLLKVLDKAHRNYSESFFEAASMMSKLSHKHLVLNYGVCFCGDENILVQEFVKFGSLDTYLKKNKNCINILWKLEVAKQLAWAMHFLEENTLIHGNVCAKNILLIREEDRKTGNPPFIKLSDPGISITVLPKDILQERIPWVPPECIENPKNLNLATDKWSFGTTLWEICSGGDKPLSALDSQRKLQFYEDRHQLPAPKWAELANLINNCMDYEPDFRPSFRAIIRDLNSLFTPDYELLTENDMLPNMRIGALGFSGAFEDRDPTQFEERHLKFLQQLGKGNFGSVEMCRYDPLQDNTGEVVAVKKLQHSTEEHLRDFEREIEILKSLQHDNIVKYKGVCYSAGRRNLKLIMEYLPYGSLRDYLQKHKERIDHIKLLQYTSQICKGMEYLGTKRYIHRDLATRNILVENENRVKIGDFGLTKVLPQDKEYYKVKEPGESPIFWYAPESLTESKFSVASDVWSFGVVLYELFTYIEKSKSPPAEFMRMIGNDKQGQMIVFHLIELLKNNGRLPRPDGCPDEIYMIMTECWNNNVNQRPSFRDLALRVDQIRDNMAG
Description: (§1) Compounds were tested against JAK1, JAK2, JAK2V617F and TYK2.
(§2) Assay Formats: JAK activity was determined in the reaction buffer 50 mM HEPES, 0.01% Brij35, 10 mMMgCl2, 2 mMDTT by a microfluidic assay. The phosphorylation of a FAM labeled peptide substrate was monitored in the Caliper EZ Reader II (Perkin Elmer). The assay condition for each batch of enzyme (Carna Biosciences) was optimized to obtain 10% conversion rate of peptide substrate.
(§3) The test compounds were dissolved in DMSO to a stock concentration of 10 mM. 3-fold serially diluted compounds with top concentration of 5 μM were pre-incubated with JAK1, JAK2, JAK2V617F or TYK2 for 10 min at ambient temperature. The final DMSO concentration of assay mixture was 1%. FAM labeled peptide substrate (final concentration […]) and ATP (1 mM concentration) were sequentially added to initiate the kinase reaction at 28° C. The reaction was stopped by adding 50 mMEDTA. The reaction time for JAK1, JAK2, JAK2V617F and TYK2 was 120 min, 20 min, 30 min and 10 min, respectively.
(§4) The well in the test plate without enzyme was defined as 100% inhibition. And the well without compound but with equivalent DMSO was defined as no inhibition. The percent inhibition was calculated by the following formula. % Inhibition=(Conversionmax−Conversionsample)/(Conversionmax−Conversionmin)*100Conversionmax means the conversion rate in the positive well without addition of compound Conversionmin means the conversion rate in the well without addition of enzyme Conversionsample means the conversion rate of test compounds
(§5) The dose-response (percent inhibition) curve was plotted and IC50 values were determined by GraphPad software.

[2] = molecular target: T2, JAK1 (Homo sapiens, UniProt P23458); test: JAK1 microfluidic kinase assay (Caliper EZ Reader II, FAM labeled peptide substrate); settings: (5 nM), 1 mM ATP
T2 construct: purchased Carna Biosciences
T2 sequence (P23458 whole entry): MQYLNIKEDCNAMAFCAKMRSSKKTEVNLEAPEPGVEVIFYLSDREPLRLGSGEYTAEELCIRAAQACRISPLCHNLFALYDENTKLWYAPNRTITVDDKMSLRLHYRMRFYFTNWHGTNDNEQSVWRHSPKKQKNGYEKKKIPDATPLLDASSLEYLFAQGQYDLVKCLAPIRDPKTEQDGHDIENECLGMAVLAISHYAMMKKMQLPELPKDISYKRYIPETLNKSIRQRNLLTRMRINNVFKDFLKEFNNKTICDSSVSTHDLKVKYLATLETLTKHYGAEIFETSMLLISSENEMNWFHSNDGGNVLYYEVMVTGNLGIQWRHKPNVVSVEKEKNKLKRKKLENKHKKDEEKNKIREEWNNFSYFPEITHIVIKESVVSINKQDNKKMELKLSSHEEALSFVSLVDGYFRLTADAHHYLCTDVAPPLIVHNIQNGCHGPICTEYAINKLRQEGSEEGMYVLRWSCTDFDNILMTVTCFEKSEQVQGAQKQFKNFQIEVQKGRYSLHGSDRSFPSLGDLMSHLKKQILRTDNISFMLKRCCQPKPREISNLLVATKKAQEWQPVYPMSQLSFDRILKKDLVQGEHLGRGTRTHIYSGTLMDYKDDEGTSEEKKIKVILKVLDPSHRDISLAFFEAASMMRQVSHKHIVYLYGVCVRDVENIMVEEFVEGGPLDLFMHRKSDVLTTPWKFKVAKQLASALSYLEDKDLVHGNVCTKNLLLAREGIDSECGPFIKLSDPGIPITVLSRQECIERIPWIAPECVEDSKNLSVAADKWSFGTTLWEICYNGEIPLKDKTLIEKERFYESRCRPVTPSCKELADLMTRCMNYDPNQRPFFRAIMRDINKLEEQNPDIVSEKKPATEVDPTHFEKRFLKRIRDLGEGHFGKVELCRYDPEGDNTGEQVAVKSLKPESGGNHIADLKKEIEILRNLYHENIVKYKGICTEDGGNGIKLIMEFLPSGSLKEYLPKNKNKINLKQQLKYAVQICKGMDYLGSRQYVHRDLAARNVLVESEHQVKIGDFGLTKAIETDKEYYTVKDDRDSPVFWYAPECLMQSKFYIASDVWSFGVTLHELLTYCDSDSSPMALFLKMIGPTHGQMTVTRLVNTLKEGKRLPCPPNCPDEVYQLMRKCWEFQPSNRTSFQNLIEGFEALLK
Description: as §1, §2, §3, §4, §5

[3] = molecular target: T3, JAK2 (Homo sapiens, UniProt O60674); test: JAK2 microfluidic kinase assay (Caliper EZ Reader II, FAM labeled peptide substrate); settings: (0.25 nM), 1 mM ATP
T3 construct: purchased Carna Biosciences
T3 sequence (O60674 whole entry): as the sequence (O60674 whole entry V617F) above, with F617V counted along it
Description: as §1, §2, §3, §4, §5

[4] = molecular target: T4, TYK2 (Homo sapiens, UniProt P29597); test: TYK2 microfluidic kinase assay (Caliper EZ Reader II, FAM labeled peptide substrate); settings: (2.5 nM), 1 mM ATP; Table 2; read-out: IC50 TYK2 (2.5 nM) (1 mM ATP)
T4 construct: purchased Carna Biosciences
T4 sequence (P29597 whole entry): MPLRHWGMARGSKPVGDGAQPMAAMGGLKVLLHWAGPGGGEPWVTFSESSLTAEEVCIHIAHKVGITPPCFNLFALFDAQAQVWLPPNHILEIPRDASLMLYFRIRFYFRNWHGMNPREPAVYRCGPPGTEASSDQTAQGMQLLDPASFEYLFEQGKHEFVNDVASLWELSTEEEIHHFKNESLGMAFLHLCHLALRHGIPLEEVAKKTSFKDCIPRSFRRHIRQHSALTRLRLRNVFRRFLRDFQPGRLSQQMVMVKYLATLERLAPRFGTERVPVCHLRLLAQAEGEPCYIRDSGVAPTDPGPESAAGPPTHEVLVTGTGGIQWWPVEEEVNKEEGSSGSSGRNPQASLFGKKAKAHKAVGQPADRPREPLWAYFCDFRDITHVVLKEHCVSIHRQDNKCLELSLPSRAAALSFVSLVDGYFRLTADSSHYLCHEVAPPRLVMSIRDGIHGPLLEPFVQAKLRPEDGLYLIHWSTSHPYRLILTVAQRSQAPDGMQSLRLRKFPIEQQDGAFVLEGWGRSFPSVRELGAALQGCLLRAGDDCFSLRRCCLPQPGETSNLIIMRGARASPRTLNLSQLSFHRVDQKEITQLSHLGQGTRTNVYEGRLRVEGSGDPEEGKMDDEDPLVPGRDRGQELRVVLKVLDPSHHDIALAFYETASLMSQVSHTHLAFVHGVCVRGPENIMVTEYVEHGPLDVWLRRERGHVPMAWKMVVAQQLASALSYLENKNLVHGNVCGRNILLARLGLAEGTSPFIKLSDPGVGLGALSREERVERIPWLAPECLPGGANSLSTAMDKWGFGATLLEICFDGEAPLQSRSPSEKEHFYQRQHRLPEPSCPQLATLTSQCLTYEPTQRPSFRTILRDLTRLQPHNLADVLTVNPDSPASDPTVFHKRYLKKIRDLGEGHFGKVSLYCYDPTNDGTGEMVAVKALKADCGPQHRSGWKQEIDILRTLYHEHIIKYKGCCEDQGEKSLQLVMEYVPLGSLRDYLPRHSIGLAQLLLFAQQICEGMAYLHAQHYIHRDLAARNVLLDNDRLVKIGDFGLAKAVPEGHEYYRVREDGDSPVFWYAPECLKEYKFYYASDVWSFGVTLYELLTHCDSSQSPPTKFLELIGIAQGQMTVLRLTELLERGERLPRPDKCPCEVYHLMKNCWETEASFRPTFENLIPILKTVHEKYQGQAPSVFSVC
Description: as §1, §2, §3, §4, §5

[5] = Table 3B, literature compounds, read-out: J2V617F (2.5 nM) (1 mM ATP)
[6] = Table 3B, literature compounds, read-out: JAK1 (5 nM) (1 mM ATP)
[7] = Table 3B, literature compounds, read-out: JAK2 (0.25 nM) (1 mM ATP)
[8] = Table 2, read-out: IC50 J2V617F (2.5 nM) (1 mM ATP)
[9] = Table 2, read-out: IC50 JAK1 (5 nM) (1 mM ATP)
[10] = Table 2, read-out: IC50 JAK2 (0.25 nM) (1 mM ATP)

Structure (SMILES)	IC50 [1, 8]	IC50 [2, 9]	other results
CCCOc1ccc(-c2nc(Nc3cnn(C)c3)ncc2C)cc1F [Example 48, 4-(3-fluoro-4-propoxyphenyl)-5-methyl-N-(1-methyl-1H-pyrazol-4-yl)pyrimidin-2-amine, reference compound]			IC50 [1, 5]: 60 nM; IC50 [2, 6]: 25.7 nM; IC50 [3, 7]: 39.6 nM
Cc1cnc(Nc2cnn(C3CC3)c2)nc1-c1ccc(OC2CC(C#N)C2)cc1 (centres unmarked) [Example 2, 3-(4-(2-((1-cyclopropyl-1H-pyrazol-4-yl)amino)-5-methylpyrimidin-4-yl)phenoxy)cyclobutanecarbonitrile]	171 nM	72.7 nM	
Cc1cnc(Nc2cnn(C)c2)nc1-c1ccc(OC(C)C)c(F)c1 [Example 47, 4-(3-fluoro-4-isopropoxyphenyl)-5-methyl-N-(1-methyl-1H-pyrazol-4-yl)pyrimidin-2-amine, reference compound]			IC50 [1, 5]: 84.2 nM; IC50 [2, 6]: 48.6 nM; IC50 [3, 7]: 61.3 nM
COc1ccc(-c2nc(Nc3cnn(C)c3)ncc2C)cc1F [Example 45, 4-(3-fluoro-4-methoxyphenyl)-5-methyl-N-(1-methyl-1H-pyrazol-4-yl)pyrimidin-2-amine, reference compound]			IC50 [1, 5]: 206 nM; IC50 [2, 6]: 110 nM; IC50 [3, 7]: 121 nM
CC(C)(C#N)COc1ccc(-c2nc(Nc3cnn(C4CCOCC4)c3)ncc2F)cc1F [Example 25, 3-(2-fluoro-4-(5-fluoro-2-((1-(tetrahydro-2H-pyran-4-yl)-1H-pyrazol-4-yl)amino)pyrimidin-4-yl)phenoxy)-2,2-dimethylpropanenitrile]	32 nM	32 nM	
Cc1cnc(Nc2cnn(CC#N)c2)nc1-c1ccc(OCC2(C#N)CC2)c(F)c1 [Example 31, 1-((4-(2-((1-(cyanomethyl)-1H-pyrazol-4-yl)amino)-5-methylpyrimidin-4-yl)-2-fluorophenoxy)methyl)cyclopropane-carbonitrile]		7.94 nM	IC50 [3, 10]: 3.2 nM
Cc1cnc(Nc2cnn(C3CCOCC3)c2)nc1-c1ccc(OCC(C)(C)C#N)c(F)c1 [Example 7, 3-(2-fluoro-4-(5-methyl-2-((1-(tetrahydro-2H-pyran-4-yl)-1H-pyrazol-4-yl)amino)pyrimidin-4-yl)phenoxy)-2,2-dimethylpropanenitrile]	< 1.25 nM	< 2.5 nM	IC50 [4]: < 1.25 nM
Cc1cnc(Nc2cnn(C3CCOCC3)c2)nc1-c1ccc(OCC2(C#N)CC2)c(F)c1 [Example 6, 1-((2-fluoro-4-(5-methyl-2-((1-(tetrahydro-2H-pyran-4-yl)-1H-pyrazol-4-yl)amino)pyrimidin-4-yl)phenoxy)methyl)cyclopropane-carbonitrile]	< 1.25 nM	7.42 nM	IC50 [4]: < 1.25 nM
Cc1cnc(Nc2cnn(C3CCOCC3)c2)nc1-c1ccc(OCC(C)(C)C#N)cc1 [Example 15, 2,2-dimethyl-3-(4-(5-methyl-2-((1-(tetrahydro-2H-pyran-4-yl)-1H-pyrazol-4-yl)amino)pyrimidin-4-yl)phenoxy)propanenitrile]	< 1.25 nM	5.71 nM	
Cc1cnc(Nc2cnn(C3CC3)c2)nc1-c1ccc2c(c1)CC(C#N)CO2 (centres unmarked) [Example 34, 6-(2-((1-cyclopropyl-1H-pyrazol-4-yl)amino)-5-methylpyrimidin-4-yl)chroman-3-carbonitrile]		136 nM	IC50 [3, 10]: 58.8 nM
N#CC1(COc2ccc(-c3nc(Nc4cnn(C5CC5)c4)ncc3F)cc2F)CC1 [Example 24, 1-((4-(2-((1-cyclopropyl-1H-pyrazol-4-yl)amino)-5-fluoropyrimidin-4-yl)-2-fluorophenoxy)methyl)cyclopropane-carbonitrile]	111 nM	84.2 nM	
CC(=O)N1CCC(n2cc(Nc3ncc(C)c(-c4ccc(OCC5(C#N)CC5)c(F)c4)n3)cn2)CC1 [Example 13, 1-((4-(2-((1-(1-acetylpiperidin-4-yl)-1H-pyrazol-4-yl)amino)-5-methylpyrimidin-4-yl)-2-fluorophenoxy)methyl)cyclopropane-carbonitrile]	< 1.25 nM	5.58 nM	
N#CC1(COc2ccc(-c3nc(Nc4cnn(C5CCOCC5)c4)ncc3F)cc2F)CC1 [Example 22, 1-((2-fluoro-4-(5-fluoro-2-((1-(tetrahydro-2H-pyran-4-yl)-1H-pyrazol-4-yl)amino)pyrimidin-4-yl)phenoxy)methyl)cyclopropane-carbonitrile]	56.8 nM	136 nM	
CN(CC(C)(C)C#N)c1ccc(-c2nc(Nc3cnn(C4CC4)c3)ncc2Cl)cc1F [Example 36, 3-((4-(5-chloro-2-((1-cyclopropyl-1H-pyrazol-4-yl)amino)pyrimidin-4-yl)-2-fluorophenyl)(methyl)amino)-2,2-dimethylpropanenitrile]		103 nM	IC50 [3, 10]: 4.6 nM
Cc1cnc(Nc2cnn(CC#N)c2)nc1-c1ccc(OCC(C)(C)C#N)c(F)c1 [Example 30, 3-(4-(2-((1-(cyanomethyl)-1H-pyrazol-4-yl)amino)-5-methylpyrimidin-4-yl)-2-fluorophenoxy)-2,2-dimethylpropanenitrile]		< 2.5 nM	IC50 [3, 10]: 0.3 nM
Cc1cnc(Nc2cnn(C3CC3)c2)nc1-c1cc(F)c(OCC2(C#N)CC2)c(F)c1 [Example 10, 1-((4-(2-((1-cyclopropyl-1H-pyrazol-4-yl)amino)-5-methylpyrimidin-4-yl)-2,6-difluorophenoxy)methyl)cyclopropane carbonitrile]	113 nM	124 nM	
N#CC1(COc2ccc(-c3nc(Nc4cnn(C5CCOCC5)c4)ncc3Cl)cc2F)CC1 [Example 23, 1-((4-(5-chloro-2-((1-(tetrahydro-2H-pyran-4-yl)-1H-pyrazol-4-yl)amino)pyrimidin-4-yl)-2-fluorophenoxy)methyl)cyclopropane-carbonitrile]	< 1.25 nM	13.6 nM	
Cc1cnc(Nc2cnn(C3CCOCC3)c2)nc1-c1ccc(OC(C)C(C)(C)C#N)cc1 (centres unmarked) [Example 16, 2,2-dimethyl-3-(4-(5-methyl-2-((1-(tetrahydro-2H-pyran-4-yl)-1H-pyrazol-4-yl)amino)pyrimidin-4-yl)phenoxy)butanenitrile]	6.33 nM	39.2 nM	
CC(C)(C#N)COc1ccc(-c2nc(Nc3cnn(C4CCOCC4)c3)ncc2Cl)cc1F [Example 26, 3-(4-(5-chloro-2-((1-(tetrahydro-2H-pyran-4-yl)-1H-pyrazol-4-yl)amino)pyrimidin-4-yl)-2-fluorophenoxy)-2,2-dimethylpropanenitrile]	< 1.25 nM	6.17 nM	
Cc1cnc(Nc2cnn(C3CCN(C(=O)C4CC4)CC3)c2)nc1-c1ccc(OCC2(C#N)CC2)c(F)c1 [Example 8, 1-((4-(2-((1-(1-(cyclopropanecarbonyl)piperidin-4-yl)-1H-pyrazol-4-yl)amino)-5-methylpyrimidin-4-yl)-2-fluorophenoxy)methyl)cyclopropane-carbonitrile]	< 1.25 nM	6.2 nM	
Cc1cnc(Nc2cnn(C3CCN(C(=O)C4(C)CC4)CC3)c2)nc1-c1ccc(OCC2(C#N)CC2)c(F)c1 [Example 9, 1-((2-fluoro-4-(5-methyl-2-((1-(1-(1-methylcyclopropanecarbonyl)piperidin-4-yl)-1H-pyrazol-4-yl)amino)pyrimidin-4-yl)phenoxy)methyl)cyclopropane-carbonitrile]	< 1.25 nM	7.06 nM	
N#CC1(COc2ccc(-c3nc(Nc4cnn(C5CC5)c4)ncc3Cl)cc2F)CC1 [Example 27, 1-((4-(5-chloro-2-((l-cyclopropyl-1H-pyrazol-4-yl)amino)pyrimidin-4-yl)-2-fluorophenoxy)methyl)cyclopropane carbonitrile]	1.49 nM	5.53 nM	
CC(=O)N1CCC(n2cc(Nc3ncc(C)c(-c4ccc(OCC(C)(C)C#N)c(F)c4)n3)cn2)CC1 [Example 28, 3-(4-(2-((1-(1-acetylpiperidin-4-yl)-1H-pyrazol-4-yl)amino)-5-methylpyrimidin-4-yl)-2-fluorophenoxy)-2,2-dimethylpropanenitrile]	< 1.25 nM	< 2.5 nM	
Cc1cnc(Nc2cnn(C3CC3)c2)nc1-c1ccc(N(C)CC(C)(C)C#N)c(F)c1 [Example 35, 3-((4-(2-((1-cyclopropyl-1H-pyrazol-4-yl)amino)-5-methylpyrimidin-4-yl)-2-fluorophenyl)(methyl)amino)-2,2-dimethylpropanenitrile]		72.1 nM	IC50 [3, 10]: 1.66 nM
